Results on one compound are retold here after PubChem BioAssay AID488888 (Sanford-Burnham Center for Chemical Genomics, 2010).

The term EC50 denotes the concentration that produces a half-maximal response.

This assay has as its target Alkaline phosphatase, placental type (Homo sapiens) (UniProt P05187). Put plainly: activation of placental alkaline phosphatase – biochemical, uHTS hits, luminescence, selectivity assay for human IAP activator project, dose response (AID 488888). The following applies: purified PLAP, CDP-Star luminescence, 30 min.

Alkaline phosphatase, placental type (Homo sapiens), sequence (P05187 whole entry, looked up): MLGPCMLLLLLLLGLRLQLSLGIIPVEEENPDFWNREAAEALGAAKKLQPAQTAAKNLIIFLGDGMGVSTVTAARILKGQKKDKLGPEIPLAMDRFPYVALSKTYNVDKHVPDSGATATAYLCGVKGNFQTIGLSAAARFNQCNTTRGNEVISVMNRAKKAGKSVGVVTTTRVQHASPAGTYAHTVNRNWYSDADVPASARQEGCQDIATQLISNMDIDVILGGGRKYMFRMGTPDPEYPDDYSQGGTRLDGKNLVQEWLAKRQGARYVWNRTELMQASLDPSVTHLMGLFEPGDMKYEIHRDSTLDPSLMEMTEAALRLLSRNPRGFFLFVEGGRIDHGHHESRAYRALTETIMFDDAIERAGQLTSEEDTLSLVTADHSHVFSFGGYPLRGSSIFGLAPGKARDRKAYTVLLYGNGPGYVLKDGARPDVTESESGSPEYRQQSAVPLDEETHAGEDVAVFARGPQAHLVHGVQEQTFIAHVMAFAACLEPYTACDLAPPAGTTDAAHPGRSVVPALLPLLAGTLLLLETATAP

As to `CC1=NN(c2nc3ccccc3[nH]2)C(=O)/C1=C/N(C)C`, the half-maximal effective concentration (EC50) is 15.3 µM.
